According to US12091406B2, “Lysine acetyltransferase 6A (KAT6A) inhibitors and uses thereof” (Insilico Medicine IP Limited, priority 2021, dated 2024):

Key:
Caco-2 cells = assay: Permeability in Caco-2 Assay; assay type: in vitro ADME; settings: comparison in words, data of Table 4
Procedure: Permeability of test compounds was determined in Caco-2 Assay. Caco-2 cells purchased from ATCC were seeded onto […] (PET) in 96-well Corning Insert plates at 1×10^5 cells/cm2, and refreshed medium every 4˜5 days until to the 21st to 28th day for confluent cell monolayer formation. The transport buffer in the study was HBSS with 10.0 mM HEPES at pH 7.40±0.05. Test compound was tested at 2.00 μM bi-directionally in duplicate. Digoxin was tested at 10.0 μM bi-directionally in duplicate, while nadolol and metoprolol were tested at 2.00 μM in A to B direction in duplicate. Final DMSO concentration was adjusted to less than 1%. The plate was incubated for 2 hours in CO2 incubator at 37±1° C., with 5% CO2 at saturated humidity without shaking. And all samples after mixed with acetonitrile containing internal standard were centrifuged at 3200×g for 10 min. For nadolol and metoprolol, 200 μL supernatant solution was diluted with 600 μL ultra-pure water for LC-MS/MS analysis. For digoxin and test compounds, 200 μL supernatant solution was diluted with 200 μL ultra-pure water for LC-MS/MS analysis. Concentrations of test and control compounds in starting solution, donor solution, and receiver solution were quantified by LC-MS/MS methodologies, using peak area ratio of analyte/internal standard. […]

[1] = Kinetic solubility in 50 mM phosphate buffer (pH 7.4); assay type: physicochemical; settings: comparison in words, data of Table 3
Procedure: 10 μL of 10 mM in DMSO of test and control compounds was added into lower chambers of whatman miniuniprep vials, respectively. 490 μL of 50 mM PB (pH 7.4) was added into lower chambers of the whatman miniuniprep vials, respectively. The solubility samples were vortexted for at least 2 minutes. The miniuniprep vials were shaken on a shaker for 24 hours at room temperature at the speed of 800 rpm and then centrifuged for 20 minutes (eg. 4000 rpm). The miniunipreps were compressed to prepare the filtrates for injection into HPLC system to calculate the concentration with standard curve.

permeability compared with reference compound (Caco-2 cells): improved permeability
kinetic solubility compared with otherwise identical compound having X as carbon [1]: improved kinetic solubility
Compound: COc1cccc(OC)c1S(=O)(=O)Nc1noc2cc(Oc3nccs3)c3c(c12)OCCC3 [Compound 35, 2,6-dimethoxy-N-(5-(thiazol-2-yloxy)-3,4-dihydro-2H-chromeno[8,7-d]isoxazol-9-yl)benzenesulfonamide]
